Converted amounts (≈) assume the structure as drawn. Like-named read-outs stand apart in the source and are kept apart here. Each block holds one molecule with its values, some of them ahead of it.
What was measured:
M. smegmatis = experiment: Minimum inhibitory concentration, agar streak test on TGY agar (M. smegmatis); type: cell-based; settings: Mycolicibacterium smegmatis, NRRLB612, NRRL B-612, 37° C., 24 and 48 hr., read-out: Antimicrobial agent MIC
Description: (§1) Minimum inhibitory concentrations for microorganisms. The F. equiseti NRRL 5537 antibiotic was diluted in ethanol. Streptomycin sulfate and isoniazid were diluted in water. Amounts up to 1 ml. were added to TGY agar to provide the desired double dilution test concentrations. Minimum inhibitory concentrations of the antimicrobial agents were determined by streaking a loopful of standardized suspensions of 24- to 48-hr. cultures of selected microorganisms onto the surface of 20 ml. of the modified TGY agar in a standard petri dish. Microorganisms were cultured on TGY agar slants and diluted with TGY broth to yield a transmittance of about 90% at 600 nm. in a Spectronic-20 spectrophotometer. All cultures grew on control plates containing 1 ml. ethanol per 100 ml. TGY agar. Bacteria were incubated at 37° C. and the fungi at room temperature.

M. rhodochrus = experiment: Minimum inhibitory concentration, agar streak test on TGY agar (M. rhodochrus); type: cell-based; settings: NRRL B-2141, 37° C., 24 and 48 hr., read-out: Antimicrobial agent MIC
Description: as §1

Staphylococcus aureus = experiment: Minimum inhibitory concentration, agar streak test on TGY agar (S. aureus); type: cell-based
Description: as §1

Neisseria perflava = experiment: Minimum inhibitory concentration, agar streak test on TGY agar (N. perflava); type: cell-based
Description: as §1

Bacillus subtilis = experiment: Minimum inhibitory concentration, agar streak test on TGY agar (B. subtilis); type: cell-based
Description: as §1

Mycobacterium phlei = experiment: Minimum inhibitory concentration, agar streak test on TGY agar (M. phlei); type: cell-based; settings: Mycolicibacterium phlei, TGY agar, 37° C., 24 and 48 hr., read-out: Antimicrobial agent MIC
Description: as §1

bacteria = settings: cited from earlier work
[1] = NRRLB543, NRRL B-543, TGY agar, 37° C., 24 and 48 hr., read-out: Antimicrobial agent MIC

MIC (M. smegmatis): 4 µg/mL (≈ 29.2 µM)
MIC (M. rhodochrus): 64 µg/mL (≈ 467 µM)
MIC (Staphylococcus aureus; S. aureus strains, Table 1 footnote 1 (explains the dashes), read-out: not inhibited by (isoniazid per ml. medium)): > 128 µg/mL
MIC (Neisseria perflava; N. perflava strains, Table 1 footnote 1 (explains the dashes), read-out: not inhibited by (isoniazid per ml. medium)): > 128 µg/mL
MIC (Bacillus subtilis; B. subtilis strains, Table 1 footnote 1 (explains the dashes), read-out: not inhibited by (isoniazid per ml. medium)): > 128 µg/mL
MIC (Bacillus subtilis; [1]): 128 µg/mL (≈ 933 µM)
MIC (Mycobacterium phlei; NRRLB609, NRRL B-609): 4 µg/mL (≈ 29.2 µM)
MIC (Mycobacterium phlei; NRRLB610, NRRL B-610): 4 µg/mL (≈ 29.2 µM)
MIC (Mycobacterium phlei; NRRLB4051, NRRL B-4051): 4 µg/mL (≈ 29.2 µM)
Compound: NNC(=O)c1ccncc1 [Isoniazid]

Compound: [H]/N=C(/N)N[C@H]1[C@H](O)[C@@H](O)[C@H](O[C@@H]2O[C@@H](C)[C@](O)(C=O)[C@H]2O[C@@H]2O[C@@H](CO)[C@H](O)[C@@H](O)[C@@H]2NC)[C@@H](N/C(N)=N\[H])[C@@H]1O [Streptomycin]
MIC (M. smegmatis): 2 µg/mL (≈ 3.44 µM)
MIC (M. rhodochrus): 2 µg/mL (≈ 3.44 µM)
MIC (Staphylococcus aureus; NRRLB120, NRRL B-120, TGY agar, 37° C., 24 and 48 hr., read-out: Antimicrobial agent MIC): 2 µg/mL (≈ 3.44 µM)
MIC (Staphylococcus aureus; NRRLB124, NRRL B-124, TGY agar, 37° C., 24 and 48 hr., read-out: Antimicrobial agent MIC): 4 µg/mL (≈ 6.88 µM)
MIC (Staphylococcus aureus; NRRLB313, NRRL B-313, TGY agar, 37° C., 24 and 48 hr., read-out: Antimicrobial agent MIC): 2 µg/mL (≈ 3.44 µM)
MIC (Staphylococcus aureus; NRRLB678, NRRL B-678, TGY agar, 37° C., 24 and 48 hr., read-out: Antimicrobial agent MIC): 8 µg/mL (≈ 13.8 µM)
MIC (Staphylococcus aureus; NRRLB1317, NRRL B-1317, TGY agar, 37° C., 24 and 48 hr., read-out: Antimicrobial agent MIC): 4 µg/mL (≈ 6.88 µM)
MIC (Staphylococcus aureus; NRRLB1318, NRRL B-1318, TGY agar, 37° C., 24 and 48 hr., read-out: Antimicrobial agent MIC): 8 µg/mL (≈ 13.8 µM)
MIC (Staphylococcus aureus; NRRLB2746, NRRL B-2746, TGY agar, 37° C., 24 and 48 hr., read-out: Antimicrobial agent MIC): 2 µg/mL (≈ 3.44 µM)
MIC (Neisseria perflava; NRRLB1458, NRRL B-1458, TGY agar, 37° C., 24 and 48 hr., read-out: Antimicrobial agent MIC): 2 µg/mL (≈ 3.44 µM)
MIC (Neisseria perflava; NRRLB1788, NRRL B-1788, TGY agar, 37° C., 24 and 48 hr., read-out: Antimicrobial agent MIC): 2 µg/mL (≈ 3.44 µM)
MIC (Neisseria perflava; NRRLB1789, NRRL B-1789, TGY agar, 37° C., 24 and 48 hr., read-out: Antimicrobial agent MIC): 2 µg/mL (≈ 3.44 µM)
MIC (Neisseria perflava; NRRLB1790, NRRL B-1790, TGY agar, 37° C., 24 and 48 hr., read-out: Antimicrobial agent MIC): 2 µg/mL (≈ 3.44 µM)
MIC (Neisseria perflava; NRRLB1791, NRRL B-1791, TGY agar, 37° C., 24 and 48 hr., read-out: Antimicrobial agent MIC): 4 µg/mL (≈ 6.88 µM)
MIC (Bacillus subtilis; [1]): 4 µg/mL (≈ 6.88 µM)
MIC (Bacillus subtilis; NRRLB558, NRRL B-558, TGY agar, 37° C., 24 and 48 hr., read-out: Antimicrobial agent MIC): 8 µg/mL (≈ 13.8 µM)
MIC (Bacillus subtilis; NRRLB644, NRRL B-644, TGY agar, 37° C., 24 and 48 hr., read-out: Antimicrobial agent MIC): 2 µg/mL (≈ 3.44 µM)
MIC (Bacillus subtilis; NRRLB765, NRRL B-765, TGY agar, 37° C., 24 and 48 hr., read-out: Antimicrobial agent MIC): 2 µg/mL (≈ 3.44 µM)
MIC (Bacillus subtilis; NRRLB972, NRRL B-972, TGY agar, 37° C., 24 and 48 hr., read-out: Antimicrobial agent MIC): 8 µg/mL (≈ 13.8 µM)
MIC (Bacillus subtilis; NRRLB1650, NRRL B-1650, TGY agar, 37° C., 24 and 48 hr., read-out: Antimicrobial agent MIC): 8 µg/mL (≈ 13.8 µM)
MIC (Bacillus subtilis; NRRLB3284, NRRL B-3284, TGY agar, 37° C., 24 and 48 hr., read-out: Antimicrobial agent MIC): 4 µg/mL (≈ 6.88 µM)
MIC (Mycobacterium phlei; NRRLB609, NRRL B-609): 2 µg/mL (≈ 3.44 µM)
MIC (Mycobacterium phlei; NRRLB610, NRRL B-610): 2 µg/mL (≈ 3.44 µM)
MIC (Mycobacterium phlei; NRRLB4051, NRRL B-4051): 2 µg/mL (≈ 3.44 µM)

Compound: O=C1C=CCO1 [butenolide]
antibacterial properties (bacteria): either lack or only exhibit weak antibacterial properties
